Test results as given in patent US11932638B2, “Ion channel inhibitor compounds for cancer treatment” (Centre National de la Recherche Scientifique, priority 2017, dated 2024).
Each block holds one molecule with its values, some of them ahead of it.

What was measured:
SK2 channel = biological target: T1, SK2 channel (Rattus norvegicus, UniProt P70604); test: Automated patch clamp (Nanion NPC-16 Patchliner Quattro) on HEK-rSK2 cells, SK2 channel activity; format: cell-based; conditions: for inhibition at 0.001 µM: 1 nM; for inhibition at 0.01 µM: 10 nM
T1 construct: expressed in transfected cells
Source text: (§1) Cell Lines Used to Screen the Molecules on the Activity of SKCa Channels (Small Conductance Calcium-Activated Potassium Channel; SK1, SK2 and SK3) and IKCa Channels (Intermediate Conductance Calcium-Activated Potassium Channel, SK4)
(§2) Use was made of the HEK 293 T line, a foetal kidney line which was immortalised with the T antigen of the […] simian virus. This cell line is widely used on account of the ease with which these cells can be transfected with plasmids or other transfection vectors. Four stable lines were used for patch clamp experiments: HEK-hSK1, HEK-rSK2, HEK-rSK3 and HEK-IKCa/SK4 which respectively overexpress the SK1, SK2, SK3 and SK4 channels. The lines were obtained via stable transduction (Girault et al., Current Cancer Drug Targets, 2011, 11, 1111-25) and are those already routinely used to assay SK3 modulators (Potier et al. Br J Pharmacol. 2011 January; 162(2):464-79; Sevrain et al., Med. Chem. Commun., 2012, 3, 1471-1478; Sevrain et al., Organic & Biomolecular Chemistry, 2013 Jul. 21; 11(27):4479-87, Berthe W, Sevrain C M, Chantôme A, Bouchet A M, Gueguinou M, Fourbon Y, Potier-Cartereau M, Haelters J P, Couthon-Gourvès H, Vandier C, Jaffrès P A. ChemMedChem. 2016 Jul. 19; 11(14):1531-9). […] These lines therefore enabled us without difficulty to examine the effect of the molecules on the SK3 channel, and also the selectivity thereof by means of the patch clamp technique. The inhibitory activity of the non-toxic molecules was assayed on the activity of the SK3 channel. The selectivity of the molecules was determined by patch clamp on HEK cell models stably expressing the SK3 channel but also the SK1, SK2, SK3 or IKCa/SK4 channels.
(§3) Patch clamp is a technique allowing measurement of the activity of ion channels by recording macroscopic (whole cell configuration) or microscopic (e.g. inside out configuration) ionic currents through the plasma membrane. For assay of the effect of the molecules on the SKCa/IKCa channels, two complementary techniques were used: conventional, manual patch clamp and automated patch clamp with the Nanion NPC-16 Patchliner Quattro (4 channels) (Potier et al., Mol Cancer Ther 2006, 5, 2946-53; Chantome et al., Exp Cell Res 2009, 315, 3620-30; Potier et al., Biochem Biophys Res Commun 2010, 397, 42-7; Girault et al., Current Cancer Drug Targets, 2011, 11, 1111-25; Sevrain et al., Med. Chem. Commun., 2012, 3, 1471-1478; Sevrain et al., Organic & Biomolecular Chemistry, 2013 Jul. 21; 11(27):4479-87; Chantome et al., Cancer Research, 2013 Aug. 1; 73(15):4852-61, Gueguinou M, Crottès D, Chantôme A, Rapetti-Mauss R, Potier-Cartereau M, Clarysse L, Girault A, Fourbon Y, Jézéquel P, Guérin-Charbonnel C, Fromont G, Martin P, Pellissier B, Schiappa R, Chamorey E, Mignen O, Uguen A, Borgese F, Vandier C, Soriani O. Oncogene. 2017 Jan. 23. doi: 10.1038/onc.2016.501, Berthe W, Sevrain C M, Chantôme A, Bouchet A M, Gueguinou M, Fourbon Y, Potier-Cartereau M, Haelters J P, Couthon-Gourvès H, Vandier C, Jaffrès P A. ChemMedChem. 2016 Jul. 19; 11(14):1531-9, Guéguinou M, Harnois T, Crottes D, Uguen A, Deliot N, Gambade A, Chantôme A, Haelters J P, Jaffrès P A, Jourdan M L, Weber G, Soriani O, Bougnoux P, Mignen O, Bourmeyster N, Constantin B, Lecomte T, Vandier C, Potier-Cartereau M. Oncotarget. 2016 Jun. 14; 7(24):36168-36184. doi: 10.18632/oncotarget.8786).
The technique of choice to determine molecules inhibiting the activity of ion channels is the patch-clamp technique. However, this technique which is manual is time-consuming and only gives low yields. Automation of patch-clamp brought a revolution in the study and screening of ion channels and has allowed the envisaging of assays with much faster flow rate and much higher yield. There exist several automatic patch clamp devices based on the use of chips. […]

SK3 channel = biological target: T2, SK3 channel (Rattus norvegicus, UniProt P70605); test: Conventional manual patch clamp on HEK-rSK3 cells, SK3 channel activity; format: cell-based; conditions: for inhibition at 0.001 µM: 1 nM; for inhibition at 0.05 µM: 50 nM; for inhibition at 0.5 µM: 500 nM
T2 construct: expressed in transfected cells
Source text: as §1, §2
Electrophysiology/Patch-Clamp
as §3
For conventional patch clamp, the micropipette is filled with an intrapipette medium—IPM (see composition below) and allows measurement of ionic currents at the same time as allowing maintaining of membrane potential (voltage clamp). The experimental device was composed of an anti-vibration table supporting an inverted microscope (Nikon, Eclipse TE 300). The Petri dish (Corning Incorporated, USA), containing the cells was placed on a plexiglass plate attached to the microscope stage. The pipette was connected to the amplifier (Axopatch 200B) as reference electrode which allowed closing of the electrical circuit. […]

[1] = system: MDA-MB-435s-Luc cells expressing the SK3 channel; test: In vivo mouse model of orthotopic xenograft: primary tumour and metastases; design: species or system female NMRI nude mice; conditions: 1 mg/kg intraperitoneal, three times per week
Source text: In Vivo Mouse Model of Orthotopic Xenograft: Assay on Capacity of the Molecules to Reduce Tumour Development
This model allowed study on a metastatic cancer with development of the primary tumour and formation of metastases in parallel with primary tumour development. For this assay, female NMRI nude mice aged four weeks were used. To prepare the graft, the terminal end bud of the mice was cauterised with an electrical scalpel and 2 million cells expressing the SK3 channel and luciferase (MDA-MB-435s-Luc) implanted therein. Luciferase allows in vivo monitoring of tumour development via optical imaging (Girault et al., Current Cancer Drug Targets, 2011, 11, 1111-25; Chantome et al., Cancer Research, 2013 Aug. 1; 73(15):4852-61).
Two groups of mice were formed and compound 20 was prepared in a DMSO/PEG300/Water mixture (5:45:50) at 10 ml/kg: • Group 20 1: group treated via intraperitoneal injection of compound 20 at 1 mg/kg, three times per week for […]; and • Control group: group given injections with equivalent vehicle dilution […], three times per week for 15 weeks.
Development of the primary tumour was monitored in two manners: size measurement with a calliper rule (length×width×thickness) and measurement of bioluminescence with a bio-imaging device.
If the primary tumour reached a size of 900 mm^3, it was fully excised to best approach a clinical situation and exclude this variable which could impact the development of metastases. The experiment was continued with injections of compound 20 and monitoring of the development of metastases via BLI with front and back imaging of the mice.
The weight of the mice, bioluminescence and tumour size measurements were carried out every week to monitor tumour changes and metastases. For imaging, the mice were anaesthetised with isoflurane.
After about 15 weeks, the mice were sacrificed. Luciferin was injected before sacrifice to allow whole-animal imaging and imaging of each organ examined (bone, liver, lymph node, brain, colon).

SMILES: c1ccc2c(c1)CCC[C@@H]2Nc1ncnc2cccnc12 [Compound 20, (S)—N-(1,2,3,4-Tetrahydronaphthalen-1-yl)pyrido[3,2-d]pyrimidin-4-amine]
inhibition at 0.1 µM (SK2 channel; 100 nM): 91.2%
inhibition at 10 µM (SK2 channel; 10 μM): 91.8%
toxicity in xenografted mice [1]: apparent non-toxicity
weight of the mice versus control group ([1]; at 10 weeks, xenografted mice): no significant difference in weight between the two groups
primary tumour volume versus control group ([1]; at the time of primary tumour excision): Tumour volume did not differ between groups
lung metastases ([1]; ex vivo after 15 weeks): developed lung metastases
bone metastases ([1]; ex vivo after 15 weeks, FIG. 1): reduced the number of bone metastases
ovarian and uterine metastases ([1]; ex vivo after 15 weeks, FIG. 2): fully stopped the development of ovarian and uterine metastases
inhibition at 0.01 µM (SK3 channel; 10 nM): 45.5%
inhibition at 10 µM (SK3 channel; 10 μM): 92.8%

SMILES: c1cnc2c(NC3CCCCC3)ncnc2c1 [Compound 23, N-Cyclohexylpyrido[3,2-d]pyrimidin-4-amine]
inhibition at 10 µM (SK2 channel; 10 μM): 1%
inhibition at 10 µM (SK3 channel; 10 μM): 8.4%

SMILES: Cc1nc(NC2CCCc3ccccc32)c2ncccc2n1 (centres unmarked) [Compound 30, 2-Methyl-N-(1,2,3,4-tetrahydronaphthalen-1-yl)pyrido[3,2-d]pyrimidin-4-amine]
inhibition at 10 µM (SK2 channel; 10 μM): 95%
inhibition at 0.05 µM (SK3 channel): 35.5%
inhibition at 0.5 µM (SK3 channel): 52.9%
inhibition at 10 µM (SK3 channel; 10 μM): 87.2%

SMILES: Oc1nc(NC2CCCc3ccccc32)c2ncccc2n1 (centres unmarked) [Compound 34, 4-(1,2,3,4-tetrahydronaphthalen-1-ylamino)pyrido[3,2-d]pyrimidin-2-ol]
inhibition at 0.1 µM (SK2 channel; 100 nM): 92.7%
inhibition at 10 µM (SK2 channel; 10 μM): 94.8%
inhibition at 0.05 µM (SK3 channel): 32.9%
inhibition at 0.5 µM (SK3 channel): 40.4%

SMILES: CNc1nc(NC2CCCc3ccccc32)c2ncccc2n1 (centres unmarked) [Compound 35, N^2-methyl-N^4-(1,2,3,4-tetrahydronaphthalen-1-yl)pyrido[3,2-d]pyrimidine-2,4-diamine]
inhibition at 0.1 µM (SK2 channel; 100 nM): 83.7%
inhibition at 10 µM (SK2 channel; 10 μM): 91.4%

SMILES: CCCCCCc1cnc2c(NC3CCCc4ccccc43)ncnc2c1 (centres unmarked) [Compound 40, 7-Hexyl-N-(1,2,3,4-tetrahydronaphthalen-1-yl)pyrido[3,2-d]pyrimidin-4-amine]
inhibition at 0.1 µM (SK2 channel; 100 nM): 25.6%
inhibition at 10 µM (SK2 channel; 10 μM): 88.1%
inhibition at 0.1 µM (SK3 channel; 100 nM): 11.9%
inhibition at 10 µM (SK3 channel; 10 μM): 82.2%

Second part, the molecule after the results:

inhibition at 0.001 µM (SK2 channel): 35%
inhibition at 0.01 µM (SK2 channel): 89.3%
% SK2 inhibition (SK2 channel; 100 nM): 100 nM: 91.5 ± 1.6 (N = 9) %
% SK2 inhibition (SK2 channel; 10 μM): 10 μM: 95.6 ± 1.2 (N = 9) %
inhibition at 0.001 µM (SK3 channel): 42.2%
% SK3 inhibition (SK3 channel; 10 nM): 10 nM: 56.1 ± 4.8 (N = 3) %
% SK3 inhibition (SK3 channel; 100 nM): 100 nM: 81.3 ± 1.0 (N = 3) %
% SK3 inhibition (SK3 channel; 10 μM): 10 μM: 83.4 ± 3.2 (N = 8) %
SMILES: c1ccc2c(c1)CCCC2Nc1ncnc2cccnc12 (centres unmarked) [Compound 7, N-(1,2,3,4-Tetrahydronaphthalen-1-yl)pyrido[3,2-d]pyrimidin-4-amine]

inhibition at 0.001 µM (SK2 channel): 36.7%
inhibition at 0.01 µM (SK2 channel): 81.4%
inhibition at 0.1 µM (SK2 channel; 100 nM): 92.9%
inhibition at 10 µM (SK2 channel; 10 μM): 97%
inhibition at 0.001 µM (SK3 channel): 44.7%
inhibition at 0.01 µM (SK3 channel; 10 nM): 59.7%
inhibition at 0.1 µM (SK3 channel; 100 nM): 96%
inhibition at 10 µM (SK3 channel; 10 μM): 89.9%
SMILES: c1ccc2c(c1)CCC[C@H]2Nc1ncnc2cccnc12 [Compound 18, (R)—N-(1,2,3,4-Tetrahydronaphthalen-1-yl)pyrido[3,2-d]pyrimidin-4-amine]

inhibition at 10 µM (SK2 channel; 10 μM): 16.2%
inhibition at 10 µM (SK3 channel; 10 μM): 46%
SMILES: c1ccc2c3c(ccc2c1)CCCC3Nc1ncnc2cccnc12 (centres unmarked) [Compound 29, N-(1,2,3,4-Tetrahydrophenanthren-4-yl)pyrido[3,2-d]pyrimidin-4-amine]

inhibition at 0.05 µM (SK2 channel; 50 nM): 29.2%
inhibition at 0.1 µM (SK2 channel; 100 nM): 41.9%
inhibition at 0.5 µM (SK2 channel; 500 nM): 43.2%
inhibition at 10 µM (SK2 channel; 10 μM): 62.2%
inhibition at 0.001 µM (SK3 channel): 7.4%
inhibition at 0.01 µM (SK3 channel; 10 nM): 42.6%
inhibition at 0.05 µM (SK3 channel): 29.2%
inhibition at 0.1 µM (SK3 channel; 100 nM): 41.9%
inhibition at 0.5 µM (SK3 channel): 94.2%
inhibition at 10 µM (SK3 channel; 10 μM): 62.2%
SMILES: c1ccc2c(c1)CCCN2Nc1ncnc2cccnc12 [Compound 53, N-(3,4-Dihydroquinolin-1(2H)-yl)pyrido[3,2-d]pyrimidin-4-amine]

inhibition at 0.1 µM (SK2 channel; 100 nM): 80%
inhibition at 10 µM (SK2 channel; 10 μM): 93.3%
% SK3 inhibition (SK3 channel; 10 nM): 10 nM: 92.43 ± 0.78 (N = 2) %
inhibition at 0.1 µM (SK3 channel; 100 nM): 85.4%
inhibition at 10 µM (SK3 channel; 10 μM): 88.8%
SMILES: Cl.c1ccc2c(c1)CCCC2Nc1ncnc2cccnc12 (centres unmarked) [Compound 75, N-Tetralin-1-ylpyrido[3,2-d]pyrimidin-3-ium-4-amine chloride]
